Tests used:
[1] = test system: PLC/PRF/5 liver cancer cell line; assay: Cell survival, colorimetric MTT assay, PLC/PRF/5; format: cell-based; settings: 100 μM, 72 hours
Method: 2) Against the liver cancer cell lines: The effect of the racemic mixture of 8-HHA and that of the individual enantiomers, namely S and R enantiomers, were examined on survival of PLC/PRF/5 (also referred to as “PLC-5” or “PLC5”), Hep3B and SNU449 (also referred to as “SNU”) liver cancer cell lines. The cell viability was examined in the exponential growth phase with 100 μM of 8-HHA for 72 hours using colorimetric MTT assay. In separate assays, PLC-5 cells were treated with different concentrations of S-enantiomer of 8-HHA ranging from 20-100 μM for 72 hours.

HOP92 cells = assay: Lung cancer xenograft mouse model (HOP92); format: in vivo, BALB/c nu/nu mice; settings: for Mean ± SEM Tumor Volume (HOP-92): 10 mg/kg IP
From the text: The purpose of this study was to determine anti tumor efficacy of 8-HHA in lung cancer using HOP92 cells.
Animals and care: Thirty BABL/c nude, non-pregnant and nulliparous female mice that are 5-6 weeks old and weighing 16-20 gms were used in this study. BALB/c nu/nu mice were used because they have been historically used in xenograft studies to test anti-tumor efficacy of drug candidates. Mice were acclimatized for minimum 5 days, under same conditions as for the actual test. Mice were housed at room temperature 68±5° F. with room Relative Humidity of 30-70%, air Exchanges per Hour of a minimum of 10 changes per hour, lights exposure of 12-hour light/dark cycle, full spectrum fluorescent lights. The mice were housed in groups in ventilated micro-isolator cages made up of polycarbonate. The mice were using autoclaved laboratory grade bedding and were provided ad libitum with irradiated pellets and autoclaved water. There were no known contaminants present in the feed, water, or bedding expected to interfere with the test data. The laboratory and animal rooms were maintained as limited-access facilities.
Route of injection and dose: 8-HHA was administered through intraperitoneal (IP) injection.
Tumor Induction: The cell line HOP92 were cultured according to recommended specifications at Vanas Oncology as above discussed in Example 20. Cells were trypizinized and counted using the Trypan-blue viability test using a hemocytometer. Cell counts in quadrants of the hemocytometer were converted to a cells/mL value, which will enable isolation of the appropriate number of cells per mouse. Each mouse was inoculated subcutaneously in the right flank region with 0.2 mL of a 50% RPMI/50% Matrigel™ mixture containing a suspension of tumor cells (5×10^6 cells/mouse). Tumors were observed twice weekly until well established. Tumor volume was calculated using the formula: Tumor weight (mg)=(a×b^2/2) where ‘b’ is the smallest diameter and ‘a’ is the largest diameter in millimeters.
Allocation of Animals: Once the established tumors reach a mean calculated volume of approximately 50-100 mg, the mice were randomized, using appropriate software, into treatment groups in order to reduce the variability of tumor sizes per group.
Pre Dose Procedure: Acclimated animals were weighed and observed for clinical signs of toxicity prior to dosing on Day 1.
The first day of dosing is Day 1. On Day 1,8-HHA, and vehicle injections are administered according to the study design in Table 9 below.
Post Dose Procedure: Following treatment, tumor and mouse body weight measurements were recorded twice weekly and gross observation was made at least once daily. Mice with tumors that were not palpable was considered complete regressions. Percentage of mice mortality and time of death were recorded for every group in the study. Animals may be defined as moribund and sacrificed if one or more of the following criteria are met: • Loss of body weight of 20% or greater in a 1 week period. • Mice that inhibit normal physiological function such as eating, drinking, mobility, and ability to urinate and/or defecate. • Tumors that exceed a maximum size of 2000 mg as measured by calipers. • Ulcerated tumors, or tumors that bleed or produce exudates. • Prolonged, excessive diarrhea leading to excessive weight loss (>20%). • Persistent wheezing and respiratory distress. • Prolonged or excessive pain or distress as defined by clinical observations such as: prostration, hunched posture, paralysis/paresis, distended abdomen, ulcerations, abscesses, seizures, and/or hemorrhages.

CCCCCCCCC(O)CCCCCCC(=O)O (racemic) [Sample 8-HHA, 8-hydroxy-palmitic acid]
reduced the survival of PLC-5 cell line by [1]: 52% | Mean ± SEM Tumor Volume (HOP-92) (HOP92 cells; Day 16): 88.78±28.61 mm^3 | Mean ± SEM Tumor Volume (HOP-92) (HOP92 cells; Day 18): 82.02±25.93 mm^3 | decrease in tumor volume vs control group (HOP92 cells; T1 10 mg/Kg, day 16): 58.6% | decrease in tumor volume vs control group (HOP92 cells; T1 10 mg/Kg, day 18): 68.2% | decrease in tumor volume vs control group (HOP92 cells; T2 100 mg/Kg, day 16): 56.5% | decrease in tumor volume vs control group (HOP92 cells; T2 100 mg/Kg, day 18): 73.1% | tumor growth inhibition, in words (HOP92 cells; both T1 (10 mg/Kg) and T2 (100 mg/Kg)): significantly inhibited tumor growth in mice from day 16
